# Legend:
# lambsquarters [1] = experiment: Test Example 5: herbicidal effect by foliage application, plastic box (Table 20, symbol O); format: in vivo, lambsquarters (Chenopodium album); conditions: foliage application, evaluated three weeks after application
# In short: (§1)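 Plants were sown into sterilized diluvial soil under about 1.5 cm cover and kept in a greenhouse at 25° C. to 30° C. Fourteen days on, foliage received an even spray of the diluted emulsion. Herbicidal or crop effect was judged three weeks afterwards.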
# Italian ryegrass [2] = experiment: Test Example 5: herbicidal effect by foliage application, plastic box (Table 20, symbol K); format: in vivo, Italian ryegrass (Lolium multiflorum); conditions: foliage application, evaluated three weeks after application
# In short: as §1
# persian speedwell [3] = experiment: Test Example 5: herbicidal effect by foliage application, plastic box (Table 20, symbol R); format: in vivo, Persian speedwell (Veronica persica); conditions: foliage application, evaluated three weeks after application
# In short: as §1
# windgrass [4] = experiment: Test Example 4: herbicidal effect by soil treatment (Table 19, symbol L); format: in vivo, windgrass (Apera spica-venti)
# In short: (§2)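 In this soil treatment, the formulated compound reached the seeds only through the soil: seeds were buried about 1.5 cm deep in sterilized diluvial soil, then the diluted emulsion was sprayed over the surface. After three weeks at 25° C. to 30° C. in a greenhouse, effects were graded on criteria from an earlier test.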
# southern crabgrass [5] = experiment: Test Example 5: herbicidal effect by foliage application, plastic box (Table 20, symbol F); format: in vivo, southern crabgrass (Digitaria ciliaris); conditions: foliage application, evaluated three weeks after application
# In short: as §1
# Italian ryegrass [6] = experiment: Test Example 4: herbicidal effect by soil treatment (Table 19, symbol K); format: in vivo, Italian ryegrass (Lolium multiflorum)
# In short: as §2
# Chinese sprangletop = experiment: Test Example 3: herbicidal effect by foliage application, Wagner pot (Table 18, symbol D); format: in vivo, chinese sprangletop (Leptochloa chinensis); conditions: 96 g/ha
# In short: (§3)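 Plants were sown in alluvial soil held under 0.1–0.5 cm standing water and grown 14 days in a greenhouse at 25–30 °C. An emulsifiable formulation, water-diluted to the set dose, was then sprayed onto the foliage, and effects were scored three weeks later using previously defined criteria.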
# green foxtail [7] = experiment: Test Example 5: herbicidal effect by foliage application, plastic box (Table 20, symbol G); format: in vivo, green foxtail (Setaria viridis); conditions: foliage application, evaluated three weeks after application
# In short: as §1
# barnyard grass [8] = experiment: Test Example 4: herbicidal effect by soil treatment (Table 19, symbol H); format: in vivo, barnyard grass (Echinochloa crus-galli)
# In short: as §2
# redroot pigweed [9] = experiment: Test Example 5: herbicidal effect by foliage application, plastic box (Table 20, symbol N); format: in vivo, redroot pigweed (Amaranthus retroflexus); conditions: foliage application, evaluated three weeks after application
# In short: as §1
# chickweed [10] = experiment: Test Example 5: herbicidal effect by foliage application, plastic box (Table 20, symbol P); format: in vivo, common chickweed (Stellaria media); conditions: foliage application, evaluated three weeks after application
# In short: as §1
# wild oat [11] = experiment: Test Example 5: herbicidal effect by foliage application, plastic box (Table 20, symbol I); format: in vivo, wild oat (Avena fatua); conditions: foliage application, evaluated three weeks after application
# In short: as §1
# barnyard grass [12] = experiment: Test Example 3: herbicidal effect by foliage application, Wagner pot (Table 18, symbol H); format: in vivo, barnyard grass (Echinochloa crus-galli); conditions: 96 g/ha
# In short: as §3
# redroot pigweed [13] = experiment: Test Example 4: herbicidal effect by soil treatment (Table 19, symbol N); format: in vivo, redroot pigweed (Amaranthus retroflexus)
# In short: as §2
# velvetleaf [14] = experiment: Test Example 4: herbicidal effect by soil treatment (Table 19, symbol M); format: in vivo, velvetleaf (Abutilon theophrasti)
# In short: as §2
# barnyard grass [15] = experiment: Test Example 5: herbicidal effect by foliage application, plastic box (Table 20, symbol H); format: in vivo, barnyard grass (Echinochloa crus-galli); conditions: foliage application, evaluated three weeks after application
# In short: as §1
# lambsquarters [16] = experiment: Test Example 4: herbicidal effect by soil treatment (Table 19, symbol O); format: in vivo, lambsquarters (Chenopodium album)
# In short: as §2
# blackgrass [17] = experiment: Test Example 5: herbicidal effect by foliage application, plastic box (Table 20, symbol J); format: in vivo, blackgrass (Alopecurus myosuroides); conditions: foliage application, evaluated three weeks after application
# In short: as §1
# southern crabgrass [18] = experiment: Test Example 4: herbicidal effect by soil treatment (Table 19, symbol F); format: in vivo, southern crabgrass (Digitaria ciliaris)
# In short: as §2
# velvetleaf [19] = experiment: Test Example 5: herbicidal effect by foliage application, plastic box (Table 20, symbol M); format: in vivo, velvetleaf (Abutilon theophrasti); conditions: foliage application, evaluated three weeks after application
# In short: as §1
# green foxtail [20] = experiment: Test Example 4: herbicidal effect by soil treatment (Table 19, symbol G); format: in vivo, green foxtail (Setaria viridis)
# In short: as §2
# chickweed [21] = experiment: Test Example 4: herbicidal effect by soil treatment (Table 19, symbol P); format: in vivo, common chickweed (Stellaria media)
# In short: as §2
# windgrass [22] = experiment: Test Example 5: herbicidal effect by foliage application, plastic box (Table 20, symbol L); format: in vivo, windgrass (Apera spica-venti); conditions: foliage application, evaluated three weeks after application
# In short: as §1
# wild oat [23] = experiment: Test Example 4: herbicidal effect by soil treatment (Table 19, symbol I); format: in vivo, wild oat (Avena fatua)
# In short: as §2
# blackgrass [24] = experiment: Test Example 4: herbicidal effect by soil treatment (Table 19, symbol J); format: in vivo, blackgrass (Alopecurus myosuroides)
# In short: as §2
# persian speedwell [25] = experiment: Test Example 4: herbicidal effect by soil treatment (Table 19, symbol R); format: in vivo, Persian speedwell (Veronica persica)
# In short: as §2
# [26] = amount of applied herbicide 320 g/ha
smiles,measurement,setting,value
Cc1nn(C)c(=O)c(-c2c(-c3ccccc3)sc3ccc(Cl)cc23)c1O [2-094],herbicidal effect on O: lambsquarters,lambsquarters [1]; 96 g/ha,2 (Herbicidal rate of 20% or more and less than 40%)
same,herbicidal effect on K: Italian ryegrass,Italian ryegrass [2]; 96 g/ha,2 (Herbicidal rate of 20% or more and less than 40%)
same,herbicidal effect on R: persian speedwell,persian speedwell [3]; 96 g/ha,1 (Herbicidal rate of 5% or more and less than 20%)
same,"herbicidal effect rating, L: windgrass",windgrass [4]; 96 g/ha,0 (Herbicidal rate of 5% or less (almost no effect))
same,herbicidal effect on F: southern crabgrass,southern crabgrass [5]; 96 g/ha,0 (Herbicidal rate of 5% or less (almost no effect))
same,"herbicidal effect rating, K: Italian ryegrass",Italian ryegrass [6]; 96 g/ha,0 (Herbicidal rate of 5% or less (almost no effect))
same,"herbicidal effect on D (Chinese sprangletop), rating 0-5",Chinese sprangletop,0 (Herbicidal rate of 5% or less (almost no effect))
same,herbicidal effect on G: green foxtail,green foxtail [7]; 96 g/ha,0 (Herbicidal rate of 5% or less (almost no effect))
same,"herbicidal effect rating, H: barnyard grass",barnyard grass [8]; 96 g/ha,0 (Herbicidal rate of 5% or less (almost no effect))
same,herbicidal effect on N: redroot pigweed,redroot pigweed [9]; 96 g/ha,3 (Herbicidal rate of 40% or more and less than 70%)
same,herbicidal effect on P: chickweed,chickweed [10]; 96 g/ha,5 (Herbicidal rate of 90% or more (almost completely withered))
same,herbicidal effect on I: wild oat,wild oat [11]; 96 g/ha,0 (Herbicidal rate of 5% or less (almost no effect))
same,"herbicidal effect on H (barnyard grass), rating 0-5",barnyard grass [12],2 (Herbicidal rate of 20% or more and less than 40%)
same,"herbicidal effect rating, N: redroot pigweed",redroot pigweed [13]; 96 g/ha,5 (Herbicidal rate of 90% or more (almost completely withered))
same,"herbicidal effect rating, M: velvetleaf",velvetleaf [14]; 96 g/ha,0 (Herbicidal rate of 5% or less (almost no effect))
same,herbicidal effect on H: barnyard grass,barnyard grass [15]; 96 g/ha,0 (Herbicidal rate of 5% or less (almost no effect))
same,"herbicidal effect rating, O: lambsquarters",lambsquarters [16]; 96 g/ha,3 (Herbicidal rate of 40% or more and less than 70%)
same,herbicidal effect on J: blackgrass,blackgrass [17]; 96 g/ha,0 (Herbicidal rate of 5% or less (almost no effect))
same,"herbicidal effect rating, F: southern crabgrass",southern crabgrass [18]; 96 g/ha,0 (Herbicidal rate of 5% or less (almost no effect))
same,herbicidal effect on M: velvetleaf,velvetleaf [19]; 96 g/ha,3 (Herbicidal rate of 40% or more and less than 70%)
same,"herbicidal effect rating, G: green foxtail",green foxtail [20]; 96 g/ha,0 (Herbicidal rate of 5% or less (almost no effect))
same,"herbicidal effect rating, P: chickweed",chickweed [21]; 96 g/ha,0 (Herbicidal rate of 5% or less (almost no effect))
same,herbicidal effect on L: windgrass,windgrass [22]; 96 g/ha,0 (Herbicidal rate of 5% or less (almost no effect))
same,"herbicidal effect rating, I: wild oat",wild oat [23]; 96 g/ha,0 (Herbicidal rate of 5% or less (almost no effect))
same,"herbicidal effect rating, J: blackgrass",blackgrass [24]; 96 g/ha,0 (Herbicidal rate of 5% or less (almost no effect))
same,"herbicidal effect rating, R: persian speedwell",persian speedwell [25]; 96 g/ha,0 (Herbicidal rate of 5% or less (almost no effect))
CCCC(=O)Oc1c(C)nn(C)c(=O)c1-c1c(-c2ccc(OC)cc2)sc2ccc(C)cc12 [2-141],herbicidal effect on O: lambsquarters (criteria 0-5),lambsquarters [1]; 320 g/ha,0 (Herbicidal rate of 5% or less (almost no effect))
same,herbicidal effect on K: Italian ryegrass (criteria 0-5),Italian ryegrass [2]; 320 g/ha,0 (Herbicidal rate of 5% or less (almost no effect))
same,herbicidal effect on R: persian speedwell (criteria 0-5),persian speedwell [3]; 320 g/ha,5 (Herbicidal rate of 90% or more (almost completely withered))
same,"L: windgrass, herbicidal effect rating",windgrass [4]; [26],0 (Herbicidal rate of 5% or less (almost no effect))
same,herbicidal effect on F: southern crabgrass (criteria 0-5),southern crabgrass [5]; 320 g/ha,0 (Herbicidal rate of 5% or less (almost no effect))
same,"K: Italian ryegrass, herbicidal effect rating",Italian ryegrass [6]; [26],0 (Herbicidal rate of 5% or less (almost no effect))
same,herbicidal effect on G: green foxtail (criteria 0-5),green foxtail [7]; 320 g/ha,0 (Herbicidal rate of 5% or less (almost no effect))
same,"H: barnyard grass, herbicidal effect rating",barnyard grass [8]; [26],0 (Herbicidal rate of 5% or less (almost no effect))
same,herbicidal effect on N: redroot pigweed (criteria 0-5),redroot pigweed [9]; 320 g/ha,0 (Herbicidal rate of 5% or less (almost no effect))
same,herbicidal effect on P: chickweed (criteria 0-5),chickweed [10]; 320 g/ha,5 (Herbicidal rate of 90% or more (almost completely withered))
same,herbicidal effect on I: wild oat (criteria 0-5),wild oat [11]; 320 g/ha,0 (Herbicidal rate of 5% or less (almost no effect))
same,"N: redroot pigweed, herbicidal effect rating",redroot pigweed [13]; [26],0 (Herbicidal rate of 5% or less (almost no effect))
same,"M: velvetleaf, herbicidal effect rating",velvetleaf [14]; [26],0 (Herbicidal rate of 5% or less (almost no effect))
same,herbicidal effect on H: barnyard grass (criteria 0-5),barnyard grass [15]; 320 g/ha,0 (Herbicidal rate of 5% or less (almost no effect))
same,"O: lambsquarters, herbicidal effect rating",lambsquarters [16]; [26],0 (Herbicidal rate of 5% or less (almost no effect))
same,herbicidal effect on J: blackgrass (criteria 0-5),blackgrass [17]; 320 g/ha,0 (Herbicidal rate of 5% or less (almost no effect))
same,"F: southern crabgrass, herbicidal effect rating",southern crabgrass [18]; [26],0 (Herbicidal rate of 5% or less (almost no effect))
same,herbicidal effect on M: velvetleaf (criteria 0-5),velvetleaf [19]; 320 g/ha,0 (Herbicidal rate of 5% or less (almost no effect))
same,"G: green foxtail, herbicidal effect rating",green foxtail [20]; [26],0 (Herbicidal rate of 5% or less (almost no effect))
same,"P: chickweed, herbicidal effect rating",chickweed [21]; [26],0 (Herbicidal rate of 5% or less (almost no effect))
same,herbicidal effect on L: windgrass (criteria 0-5),windgrass [22]; 320 g/ha,0 (Herbicidal rate of 5% or less (almost no effect))
same,"I: wild oat, herbicidal effect rating",wild oat [23]; [26],0 (Herbicidal rate of 5% or less (almost no effect))
same,"J: blackgrass, herbicidal effect rating",blackgrass [24]; [26],0 (Herbicidal rate of 5% or less (almost no effect))
same,"R: persian speedwell, herbicidal effect rating",persian speedwell [25]; [26],2 (Herbicidal rate of 20% or more and less than 40%)
